Measurements as given in patent publication US20240124427A1, “HYDROXYHETEROCYCLOALKANE-CARBAMOYL DERIVATIVES” (Idorsia Pharmaceuticals Ltd, priority 2021, published 2024).
Read-outs that look alike come from different tables or passages of the source.

Tests used:
[1] = target: human Gal-3 (hGal-3) (Homo sapiens (Human), UniProt P17931); test: Competitive binding assay: biotinylated hGal-3 binding to microplate-adsorbed asialofetuin (ASF)
Summary of the method: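 Spectrophotometric read-out using streptavidin-peroxidase and ABTS quantifies how much biotin-hGal-3 remains bound to microplate asialofetuin after 3 h at 4 °C with compound present. Values are means of repeated IC50 determinations.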

[2] = target: human Gal-1 (hGal-1) (Homo sapiens, UniProt P09382); type: binding
human Gal-1 (hGal-1), sequence (P09382 2-135 limits assumed): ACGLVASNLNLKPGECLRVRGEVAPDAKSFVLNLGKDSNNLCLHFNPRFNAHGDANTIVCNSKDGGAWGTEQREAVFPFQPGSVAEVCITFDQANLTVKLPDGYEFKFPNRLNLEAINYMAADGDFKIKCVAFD

[3] = Activity on hGal-3, mean values of several measurements, mixture of diastereomers measured where not separated

human Gal-3 (hGal-3), sequence (P17931 whole entry): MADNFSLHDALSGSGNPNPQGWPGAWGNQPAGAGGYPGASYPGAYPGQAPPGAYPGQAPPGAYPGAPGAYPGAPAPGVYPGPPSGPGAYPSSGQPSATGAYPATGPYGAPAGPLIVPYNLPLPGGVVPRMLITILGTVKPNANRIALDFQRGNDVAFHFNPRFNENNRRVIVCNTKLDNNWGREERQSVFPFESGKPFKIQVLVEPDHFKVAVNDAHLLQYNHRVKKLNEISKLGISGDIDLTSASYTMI

**Q.** What does the source list for `CO[C@@H]1[C@@H](n2cc(-c3cc(F)c(C)c(F)c3)nn2)[C@@H](O)[C@@H](CO)O[C@H]1C(=O)N(c1cc(C)cc(Br)c1)[C@H]1CNC[C@@H]1O` [Example 70]?
**A.** IC50 [1]: 56 nM; IC50 [2]: 1800 nM

**Q.** Which results are given for `CO[C@@H]1[C@@H](n2cc(-c3cc(F)c(F)c(F)c3)nn2)[C@@H](O)[C@@H](CO)O[C@H]1C(=O)N(c1cc(Br)cc(Br)c1)[C@H]1CN(C(C)=O)C[C@@H]1O` [Example 84]?
**A.** IC50 [1]: 70 nM; IC50 [2]: 1210 nM

**Q.** What does the source list for `CO[C@@H]1[C@@H](n2cc(-c3cc(F)c(C)c(F)c3)nn2)[C@@H](O)[C@@H](CO)O[C@H]1C(=O)N(c1cc(Cl)cc(Cl)c1)[C@@H]1CN(C(C)=O)C[C@H]1O` [Example 85]?
**A.** IC50 [1]: 327 nM; IC50 [2]: 13400 nM

**Q.** For `CO[C@@H]1[C@@H](n2cc(-c3cc(F)c(Cl)c(F)c3)nn2)[C@@H](O)[C@@H](CO)O[C@H]1C(=O)N(c1cc(Cl)cc(Cl)c1)[C@@H]1CN(C(C)=O)C[C@H]1O` [Example 86], which IC50 [1] is on record?
**A.** The IC50 was 64 nM.

**Q.** What about the IC50 [2] of the same compound?
**A.** The IC50 was 1780 nM.

**Q.** For `CO[C@@H]1[C@@H](n2cc(-c3cc(F)c(Cl)c(F)c3)nn2)[C@@H](O)[C@@H](CO)O[C@H]1C(=O)N(c1cc(Br)cc(Br)c1)[C@@H]1CN(C(C)=O)C[C@H]1O` [Example 87], which IC50 [1] is on record?
**A.** Its IC50 is 36 nM.

**Q.** And the IC50 [2]?
**A.** Its IC50 is 1860 nM.

**Q.** What does the source list for `CO[C@@H]1[C@@H](n2cc(-c3ccc(Cl)c(Cl)c3)nn2)[C@@H](O)[C@@H](CO)O[C@H]1C(=O)N(c1cc(Cl)cc(Cl)c1)[C@@H]1CN(C(C)=O)C[C@H]1O` [Example 88]?
**A.** IC50 [1]: 71 nM; IC50 [2]: 657 nM

**Q.** `CO[C@@H]1[C@@H](n2cc(-c3cc(F)c(F)c(F)c3)nn2)[C@@H](O)[C@@H](CO)O[C@H]1C(=O)N(c1cc(Cl)cc(Cl)c1)[C@H]1CCOC[C@@H]1O` [Example 99, (2R,3R,4S,5R,6R)-N-(3,5-dichlorophenyl)-5-hydroxy-6-(hydroxymethyl)-N-((3R,4S)-3-hydroxytetrahydro-2H-pyran-4-yl)-3-methoxy-4-(4-(3,4,5-trifluorophenyl)-1H-1,2,3-triazol-1-yl)tetrahydro-2H-pyran-2-carboxamide] was tested. Which IC50 [1, 3] did it give?
**A.** The IC50 was 16 nM.

**Q.** `CO[C@@H]1[C@@H](n2cc(-c3cc(F)c(F)c(F)c3)nn2)[C@@H](O)[C@@H](CO)O[C@H]1C(=O)N(c1cc(Cl)cc(C#N)c1)[C@H]1CCOC[C@@H]1O` [Example 100, (2R,3R,4S,5R,6R)-N-(3-chloro-5-cyanophenyl)-5-hydroxy-6-(hydroxymethyl)-N-((3R,4S)-3-hydroxytetrahydro-2H-pyran-4-yl)-3-methoxy-4-(4-(3,4,5-trifluorophenyl)-1H-1,2,3-triazol-1-yl)tetrahydro-2H-pyran-2-carboxamide] was tested. Which IC50 [1, 3] did it give?
**A.** The IC50 was 16 nM.

**Q.** Which IC50 [1, 3] does the source give for `CO[C@@H]1[C@@H](n2cc(-c3cc(F)c(F)c(F)c3)nn2)[C@@H](O)[C@@H](CO)O[C@H]1C(=O)N(c1cc(Br)cc(C#N)c1)[C@H]1CCOC[C@@H]1O` [Example 101, (2R,3R,4S,5R,6R)-N-(3-bromo-5-cyanophenyl)-5-hydroxy-6-(hydroxymethyl)-N-((3R,4S)-3-hydroxytetrahydro-2H-pyran-4-yl)-3-methoxy-4-(4-(3,4,5-trifluorophenyl)-1H-1,2,3-triazol-1-yl)tetrahydro-2H-pyran-2-carboxamide] here?
**A.** Its IC50 is 14 nM.

**Q.** With `CO[C@@H]1[C@@H](n2cc(-c3cc(F)c(F)c(F)c3)nn2)[C@@H](O)[C@@H](CO)O[C@H]1C(=O)N(c1cc(C)cc(Br)c1)[C@H]1CCOC[C@@H]1O` [Example 102, (2R,3R,4S,5R,6R)-N-(3-bromo-5-methylphenyl)-5-hydroxy-6-(hydroxymethyl)-N-((3R,4S)-3-hydroxytetrahydro-2H-pyran-4-yl)-3-methoxy-4-(4-(3,4,5-trifluorophenyl)-1H-1,2,3-triazol-1-yl)tetrahydro-2H-pyran-2-carboxamide] as the compound, how does the IC50 [1, 3] read?
**A.** Its IC50 is 14 nM.

**Q.** For `CO[C@@H]1[C@@H](n2cc(-c3cc(F)c(F)c(F)c3)nn2)[C@@H](O)[C@@H](CO)O[C@H]1C(=O)N(c1cc(Cl)cc(Cl)c1)[C@@H]1CCOC[C@H]1O` [Example 103, (2R,3R,4S,5R,6R)-N-(3,5-dichlorophenyl)-5-hydroxy-6-(hydroxymethyl)-N-((3S,4R)-3-hydroxytetrahydro-2H-pyran-4-yl)-3-methoxy-4-(4-(3,4,5-trifluorophenyl)-1H-1,2,3-triazol-1-yl)tetrahydro-2H-pyran-2-carboxamide], which IC50 [1, 3] is on record?
**A.** Its IC50 is 299 nM.

**Q.** `CO[C@@H]1[C@@H](n2cc(-c3cc(F)c(F)c(F)c3)nn2)[C@@H](O)[C@@H](CO)O[C@H]1C(=O)N(c1cc(C)cc(Br)c1)[C@@H]1CCOC[C@H]1O` [Example 104, (2R,3R,4S,5R,6R)-N-(3-bromo-5-methylphenyl)-5-hydroxy-6-(hydroxymethyl)-N-((3S,4R)-3-hydroxytetrahydro-2H-pyran-4-yl)-3-methoxy-4-(4-(3,4,5-trifluorophenyl)-1H-1,2,3-triazol-1-yl)tetrahydro-2H-pyran-2-carboxamide] was tested. Which IC50 [1, 3] did it give?
**A.** Its IC50 is 256 nM.

**Q.** Which IC50 [1, 3] does the source give for `CO[C@@H]1[C@@H](n2cc(-c3cc(F)c(F)c(F)c3)nn2)[C@@H](O)[C@@H](CO)O[C@H]1C(=O)N(c1cc(Cl)cc(Cl)c1)[C@H]1COCC[C@@H]1O` [Example 105, (2R,3R,4S,5R,6R)-N-(3,5-dichlorophenyl)-5-hydroxy-6-(hydroxymethyl)-N-((3S,4S)-4-hydroxytetrahydro-2H-pyran-3-yl)-3-methoxy-4-(4-(3,4,5-trifluorophenyl)-1H-1,2,3-triazol-1-yl)tetrahydro-2H-pyran-2-carboxamide] here?
**A.** Its IC50 is 18 nM.

**Q.** `CO[C@@H]1[C@@H](n2cc(-c3cc(F)c(F)c(F)c3)nn2)[C@@H](O)[C@@H](CO)O[C@H]1C(=O)N(c1cc(C)cc(Br)c1)[C@H]1COCC[C@@H]1O` [Example 106, (2R,3R,4S,5R,6R)-N-(3-bromo-5-methylphenyl)-5-hydroxy-6-(hydroxymethyl)-N-((3S,4S)-4-hydroxytetrahydro-2H-pyran-3-yl)-3-methoxy-4-(4-(3,4,5-trifluorophenyl)-1H-1,2,3-triazol-1-yl)tetrahydro-2H-pyran-2-carboxamide] was tested. Which IC50 [1, 3] did it give?
**A.** Its IC50 is 13 nM.

**Q.** For `CO[C@@H]1[C@@H](n2cc(-c3cc(F)c(F)c(F)c3)nn2)[C@@H](O)[C@@H](CO)O[C@H]1C(=O)N(c1cc(Cl)cc(Cl)c1)[C@@H]1COCC[C@H]1O` [Example 107, (2R,3R,4S,5R,6R)-N-(3,5-dichlorophenyl)-5-hydroxy-6-(hydroxymethyl)-N-((3R,4R)-4-hydroxytetrahydro-2H-pyran-3-yl)-3-methoxy-4-(4-(3,4,5-trifluorophenyl)-1H-1,2,3-triazol-1-yl)tetrahydro-2H-pyran-2-carboxamide], which IC50 [1, 3] is on record?
**A.** Its IC50 is 217 nM.

**Q.** `CO[C@@H]1[C@@H](n2cc(-c3cc(F)c(F)c(F)c3)nn2)[C@@H](O)[C@@H](CO)O[C@H]1C(=O)N(c1cc(C)cc(Br)c1)[C@@H]1COCC[C@H]1O` [Example 108, (2R,3R,4S,5R,6R)-N-(3-bromo-5-methylphenyl)-5-hydroxy-6-(hydroxymethyl)-N-((3R,4R)-4-hydroxytetrahydro-2H-pyran-3-yl)-3-methoxy-4-(4-(3,4,5-trifluorophenyl)-1H-1,2,3-triazol-1-yl)tetrahydro-2H-pyran-2-carboxamide] was tested. Which IC50 [1, 3] did it give?
**A.** The IC50 was 315 nM.

**Q.** How did the IC50 [1, 3] turn out when `CO[C@@H]1[C@@H](n2cc(-c3cc(F)c(F)c(F)c3)nn2)[C@@H](O)[C@@H](CO)O[C@H]1C(=O)N(c1cc(Cl)cc(Cl)c1)[C@H]1CNCC[C@@H]1O` [Example 113, (2R,3R,4S,5R,6R)-N-(3,5-dichlorophenyl)-5-hydroxy-6-(hydroxymethyl)-N-((3S,4S)-4-hydroxypiperidin-3-yl)-3-methoxy-4-(4-(3,4,5-trifluorophenyl)-1H-1,2,3-triazol-1-yl)tetrahydro-2H-pyran-2-carboxamide] was run?
**A.** Its IC50 is 13 nM.

**Q.** For `CO[C@@H]1[C@@H](n2cc(-c3cc(F)c(F)c(F)c3)nn2)[C@@H](O)[C@@H](CO)O[C@H]1C(=O)N(c1cc(C)cc(Br)c1)[C@H]1CNCC[C@@H]1O` [Example 114, (2R,3R,4S,5R,6R)-N-(3-bromo-5-methylphenyl)-5-hydroxy-6-(hydroxymethyl)-N-((3S,4S)-4-hydroxypiperidin-3-yl)-3-methoxy-4-(4-(3,4,5-trifluorophenyl)-1H-1,2,3-triazol-1-yl)tetrahydro-2H-pyran-2-carboxamide], which IC50 [1, 3] is on record?
**A.** Its IC50 is 9 nM.

**Q.** `CO[C@@H]1[C@@H](n2cc(-c3cc(F)c(F)c(F)c3)nn2)[C@@H](O)[C@@H](CO)O[C@H]1C(=O)N(c1cc(C)cc(Br)c1)[C@@H]1CNCC[C@H]1O` [Example 115, (2R,3R,4S,5R,6R)-N-(3-bromo-5-methylphenyl)-5-hydroxy-6-(hydroxymethyl)-N-((3R,4R)-4-hydroxypiperidin-3-yl)-3-methoxy-4-(4-(3,4,5-trifluorophenyl)-1H-1,2,3-triazol-1-yl)tetrahydro-2H-pyran-2-carboxamide] was tested. Which IC50 [1, 3] did it give?
**A.** Its IC50 is 196 nM.
